Laboratory results: patent US20250152585A1, “PHARMACEUTICAL COMPOUND” (Duke Street Bio Limited, priority 2022, published 2025)
pIC50, pKd: −log10 of the molar value. Where two headings read alike, the source gives them in different places.

Columns and labels:
PARP2 = molecular target: T1, PARP2 (Homo sapiens, UniProt Q9UGN5); test: NanoBRET cellular target occupancy assay, PARP2; type: cell-based; conditions: HEK293 cells transiently transfected with PARP2-NanoLuc fusion; tracer 2 nM; 2 hours at 37° C.; Kd by Cheng-Prussoff
T1 construct: host or cells: HEK293
T1 sequence (Q9UGN5 whole entry, the tested form may be a part): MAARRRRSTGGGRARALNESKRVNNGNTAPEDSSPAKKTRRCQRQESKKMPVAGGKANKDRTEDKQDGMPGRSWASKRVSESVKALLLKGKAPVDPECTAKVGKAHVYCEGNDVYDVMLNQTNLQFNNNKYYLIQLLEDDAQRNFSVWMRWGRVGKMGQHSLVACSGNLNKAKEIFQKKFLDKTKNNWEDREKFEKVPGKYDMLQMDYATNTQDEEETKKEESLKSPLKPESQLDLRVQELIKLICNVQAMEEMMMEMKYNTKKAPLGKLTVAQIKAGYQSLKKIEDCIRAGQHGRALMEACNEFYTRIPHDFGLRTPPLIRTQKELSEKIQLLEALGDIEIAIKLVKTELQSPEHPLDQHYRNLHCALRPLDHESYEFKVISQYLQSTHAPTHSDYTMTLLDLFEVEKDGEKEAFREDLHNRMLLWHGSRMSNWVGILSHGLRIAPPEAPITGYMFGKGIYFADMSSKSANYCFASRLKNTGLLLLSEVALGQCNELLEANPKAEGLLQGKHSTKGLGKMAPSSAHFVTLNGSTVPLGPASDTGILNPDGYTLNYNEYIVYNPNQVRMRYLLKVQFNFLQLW
Description: NanoBRET Cellular Target Occupancy Assay

[1] = molecular target: T2, full length N-terminally FLAG-tagged PARP1 (Homo sapiens, UniProt P09874); test: PARP1 probe displacement HTRF assay; conditions: probe displacement HTRF; for Selectivity: PARP1 over PARP2, ratio Kd (PARP2)/Kd (PARP1); for pKd: binned Kd
T2 sequence (P09874 whole entry): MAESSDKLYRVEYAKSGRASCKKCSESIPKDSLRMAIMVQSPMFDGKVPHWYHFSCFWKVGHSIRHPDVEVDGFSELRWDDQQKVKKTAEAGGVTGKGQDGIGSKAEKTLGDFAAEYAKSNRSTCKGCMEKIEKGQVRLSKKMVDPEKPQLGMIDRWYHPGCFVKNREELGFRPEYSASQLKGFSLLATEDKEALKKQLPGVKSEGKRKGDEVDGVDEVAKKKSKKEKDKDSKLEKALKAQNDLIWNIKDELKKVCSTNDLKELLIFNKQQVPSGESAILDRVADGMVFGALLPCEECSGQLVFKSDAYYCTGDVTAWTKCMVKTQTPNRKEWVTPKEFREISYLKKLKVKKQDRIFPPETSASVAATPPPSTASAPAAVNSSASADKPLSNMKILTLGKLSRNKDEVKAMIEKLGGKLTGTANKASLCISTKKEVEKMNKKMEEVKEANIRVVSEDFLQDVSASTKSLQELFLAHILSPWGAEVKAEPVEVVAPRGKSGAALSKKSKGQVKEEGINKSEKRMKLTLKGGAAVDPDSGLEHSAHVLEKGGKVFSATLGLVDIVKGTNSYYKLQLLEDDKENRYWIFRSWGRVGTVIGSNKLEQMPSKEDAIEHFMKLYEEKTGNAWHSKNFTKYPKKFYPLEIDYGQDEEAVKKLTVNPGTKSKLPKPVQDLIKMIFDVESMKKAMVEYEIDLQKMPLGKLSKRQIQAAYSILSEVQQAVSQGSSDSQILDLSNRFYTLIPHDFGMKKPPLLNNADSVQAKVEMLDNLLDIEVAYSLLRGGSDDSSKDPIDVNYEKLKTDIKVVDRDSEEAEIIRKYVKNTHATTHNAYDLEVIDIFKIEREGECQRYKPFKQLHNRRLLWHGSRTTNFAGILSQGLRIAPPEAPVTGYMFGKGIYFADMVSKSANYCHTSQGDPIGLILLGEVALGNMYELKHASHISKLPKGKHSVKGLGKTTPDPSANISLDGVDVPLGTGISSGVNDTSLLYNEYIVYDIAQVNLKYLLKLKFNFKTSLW

[2] = molecular target: T2, full length N-terminally FLAG-tagged PARP1; test: PARP1 biochemical DELFIA assay (auto-PARylation); set-up: recombinant full length human N-terminally FLAG-tagged PARP1; conditions: binned IC50, biochemical auto-PARylation assay
[3] = molecular target: T3, N-terminally FLAG-tagged PARP2 (amino acids 1-583) (Homo sapiens, UniProt Q9UGN5); test: PARP2 probe displacement HTRF assay; type: binding; conditions: binned Kd, probe displacement HTRF
T3 construct: N-terminally FLAG-tagged PARP2 (amino acids 1-583)
T3 sequence (Q9UGN5 whole entry, the tested form may be a part): as the sequence (Q9UGN5 whole entry, the tested form may be a part) above
Procedure: Data analysis was performed identical as for PARP1.

SMILES | pKd (PARP2) | Selectivity [1] | pKd ([1]; read-out: PARP1 HTRF) | pIC50 [2] | pKd [3] | pKd ([1]; PARP1 HTRF)
CNC(=O)c1ccc(N2CCC(N3CCC(c4cc5c(c(=O)[nH]4)CCCC5)C3)CC2)c(F)n1 (single isomer, unassigned) [Compound 337b, 6-fluoro-N-methyl-5-(4-(3-(1-oxo-1,2,5,6,7,8-hexahydroisoquinolin-3-yl)pyrrolidin-1-yl)piperidin-1-yl)picolinamide] | 6.00 to 7.00 | +++ (+++ indicate a value of at least 100) | > 8.00 | > 8.00 |  | 
CNC(=O)c1ccc(N2CCC(N3CCC(c4cc5c(F)cncc5c(=O)[nH]4)C3)CC2)c(F)n1 (single isomer, unassigned) [Compound 343a, 6-fluoro-5-(4-(3-(5-fluoro-1-oxo-1,2-dihydro-2,7-naphthyridin-3-yl)pyrrolidin-1-yl)piperidin-1-yl)-N-methylpicolinamide] | 5.00 to 6.00 |  |  |  | 6.00 to 7.00 | 
CNC(=O)c1ccc(N2CCC(N3CC4(c5nc6c(c(=O)[nH]5)CCCN6C)CC3C4)CC2)c(F)n1 [Compound 375, 6-fluoro-N-methyl-5-(4-(4-(8-methyl-4-oxo-3,4,5,6,7,8-hexahydropyrido[2,3-d]pyrimidin-2-yl)-2-azabicyclo[2.1.1]hexan-2-yl)piperidin-1-yl)picolinamide] |  | + (+ indicates a value of 10 to less than 50) |  | > 8.00 | 6.00 to 7.00 | > 8.00
O=C(NC1CC1)c1ccc(N2CCC(N3CC4(c5nc6cccc(F)c6c(=O)[nH]5)CC3C4)CC2)c(F)n1 [Compound 376] |  | +++ (+++ indicate a value of at least 100) |  | > 8.00 | 6.00 to 7.00 | > 8.00
CNC(=O)c1ncc(N2CCC(N3CC4(c5nc6ccc(F)cc6c(=O)[nH]5)CC3C4)CC2)cc1F [Compound 379] |  | +++ (+++ indicate a value of at least 100) |  | > 8.00 | 6.00 to 7.00 | > 8.00
N#Cc1ccc(N2CCC(N3CC4(c5nc6ccc(F)cc6c(=O)[nH]5)CC3C4)CC2)c(F)c1 [Compound 380] |  | +++ (+++ indicate a value of at least 100) |  | > 8.00 | < 5.00 | > 8.00
N#Cc1ccc(N2CCC(N3CC4(c5nc6ccc(F)cc6c(=O)[nH]5)CC3C4)CC2)c(Cl)c1 [Compound 381] |  | +++ (+++ indicate a value of at least 100) |  | > 8.00 | 5.00 to 6.00 | > 8.00
CCN1CCCc2c1nc(C13CC(C1)N(C1CCN(c4ccc(C(=O)NC)nc4F)CC1)C3)[nH]c2=O [Compound 384] |  | + (+ indicates a value of 10 to less than 50) |  | > 8.00 | 6.00 to 7.00 | > 8.00
CNC(=O)c1ccc(N2CCC(N3CC4(c5nc6ccc(F)cc6c(=O)[nH]5)CC3C4)CC2)c(C#N)n1 [Compound 387] |  | +++ (+++ indicate a value of at least 100) |  | > 8.00 | 6.00 to 7.00 | > 8.00
N#Cc1nc(C(=O)NC2CC2)ccc1N1CCC(N2CC3(c4nc5ccc(F)cc5c(=O)[nH]4)CC2C3)CC1 [Compound 388] |  | +++ (+++ indicate a value of at least 100) |  | > 8.00 | 6.00 to 7.00 | > 8.00
CNC(=O)c1ccc(N2CCC(N3CC4(c5nc6c(c(=O)[nH]5)CCCC6)CC3C4)CC2)c(F)n1 [Compound 389] |  | +++ (+++ indicate a value of at least 100) |  | > 8.00 | 6.00 to 7.00 | > 8.00
CNC(=O)c1ccc(N2CCC(N3CC4(c5nc6cccc(C(F)(F)F)c6c(=O)[nH]5)CC3C4)CC2)cn1 [Compound 394] |  | + (+ indicates a value of 10 to less than 50) |  | > 8.00 | 7.00 to 8.00 | > 8.00
O=C(NC1CC1)c1ncc(N2CCC(N3CC4(c5nc6ccc(F)cc6c(=O)[nH]5)CC3C4)CC2)cc1F [Compound 411] |  | +++ (+++ indicate a value of at least 100) |  | > 8.00 | 6.00 to 7.00 | > 8.00
